Literature values, collected in patent publication US20240225064A1, “METHOD FOR MASS-PRODUCING SWEETENER HAVING TASTE QUALITY SIMILAR TO THAT OF SUGAR AND HAVING D-ALLULOSE FUNCTIONALITY” (NATIONAL UNIVERSITY CORPORATION KAGAWA UNIVERSITY, priority 2021, published 2024).
Read-outs that look alike come from different tables or passages of the source.

What was measured:
[1] = not given; remark: listed apart in the source
[2] = content in sweetener

SMILES | sweetness degree (sweetness intensity) (assuming that the sweetness degree of sugar is 100) | sweetness degree relative to sugar (of that of sugar) | acute oral toxicity test [1] | D-allulose content at which the function of suppressing rapid absorption of a saccharide appears [2] | sweetness of D-fructose relative to sucrose (at 40° C.) | sweetness of D-fructose relative to sucrose (at high temperatures)
O=C(CO)[C@H](O)[C@H](O)[C@H](O)CO [D-allulose] | 70 | about 70% | ≥ 5,000 mg/kg | ≥ 5 mass % |  | 
O=C(CO)[C@@H](O)[C@H](O)[C@H](O)CO [D-fructose] |  |  |  |  | equal thereto | 60%
